# In patent publication US10130590B2, “Methods of treating cancer with atovaquone-related compounds” (DANA-FARBER CANCER INSTITUTE, INC., priority 2013, dated 2018):
# Experiments:
# HEL cells = assay: Cell viability (Cell Titer Glo), HEL; assay type: cell-based; settings: 72 hours
# Description: (§1) Western blotting was performed as previously described (Battle T E, Arbiser J, & Frank D A (2005) The natural product honokiol induces caspase dependent apoptosis in B-cell chronic lymphocytic leukemia (B-CLL) cells. Blood 106(2):690-697). Antibodies to phospho-MAPK (9101), total MAPK (9102), phospho-Y705 STAT3 (9131), phospho-S6 (2215), total S6 (2217), phospho-4E-BP1 (9451), total 4E-BP1 (9644), total RSK (9355), phospho-S6K (9234, 85 used at 1:5000), total S6K (2708), phospho-eIF2α (9721, used at 1:1000), total eIF2α (5324), ATF4 (11815, used at 1:1000), PDGFRβ (3169), IGF1Rβ (9750), EGFR (2232), and HER2 (2242) were from Cell Signaling Technology. Phospho-RSK antibody was from R&D (AF889). Antibodies to total STAT3 (sc-482) and gp130 (sc-656, used at 1:1000) were from Santa Cruz Biotechnology. Phospho-S727 STAT3 antibody was described previously (229). REDD1 antibody was from Proteintech (10638-1-AP, used at 1:1000). Antibody recognizing full-length and cleaved ATF6 was from Abcam (ab122897, used at 1:1000). Antibodies to tubulin (T5168) and beta actin (A5316) were from Sigma. All antibodies were used at 1:10000 dilution for western blot unless otherwise noted. […] Cell viability was measured as ATP-dependent luminescence by Cell Titer Glo (Promega). […]
# gp130 mRNA = gp130 mRNA expression (qRT-PCR); assay type: cell-based; settings: MEF, MDA-MB, SKBR3, U266; 25 μM, 12 hours
# Description: Total RNA was reverse transcribed using random hexamers and assayed by qRT-PCR as previously described (see, Grivennikov S I, Greten F R, & Karin M (2010) Immunity, inflammation, and cancer. Cell 140(6):883-899).
# MEF, MDA-MB-468, and SKBR3 cells were treated with atovaquone (25 μM) for 6 or 12 hours, then analyzed by Western blot for expression of gp130 and various other receptors. […] In contrast, levels of other receptors—such as PDGFR-β, EGFR, HER2, and IGF1R-β—were not affected, again indicating a specific effect on gp130. […] In summary, atovaquone rapidly induces specific loss of cell-surface gp130, while total gp130 declines secondarily due to protein degradation.
# U266 cells = assay: Cell viability (Cell Titer Glo), U266; assay type: cell-based, human; settings: 72 hours
# Description: as §1
# mTOR pathway = assay: Western blot of S6 phosphorylation in TSC2 or REDD1 knockout MEFs; assay type: cell-based, mouse; settings: 25 μM, 2.5 hours
# Description: Mouse embryonic fibroblasts (MEFs) were cultured in DMEM+10% FBS. TSC2-null (see, Zhang et al. J Clin Invest. 2003; 112(8):1223-1233) and REDD1-null (see, Sofer et al. Mol. Cell. Biol. July 2005 vol. 25 no. 14 5834-5845) MEFs, along with MEFs from the littermate controls, were kind gifts from Dr. John Blenis and Dr. Leif Ellisen, respectively. HEL (see, Iwama et al. Mol. Cell. Biol. June 1999 vol. 19 no. 6 3940-3950) was a kind gift of Dr. Daniel G. Tenen and grown in RPMI-1640+10% FBS. OCI-AML2 and OCI-AML3 (see, Grunberger et al. Blood Dec. 1, 2003 vol. 102 no. 12 4153-4158), and MOLM-13 (German Collection of Microorganisms and Cell Cultures (DSMZ, Braunschweig, Germany)) were kind gifts of Dr. James D. Griffin and grown in RPMI-1640+10% FBS. MM.1S (ATCC) was a kind gift of Dr. Kenneth C. Anderson and grown in RPMI-1640+10% FBS. SET2 (see, Koppikar et al. Nature 489, 155-159 (6 Sep. 2012)) was a kind gift of Dr. Ross L. Levine and grown in RPMI-1640+10% FBS. HL60 (ATCC) was a kind gift of Dr. James D. Griffin and grown in RPMI-1640+10% FBS. […] Molecular Pharmacology 78(5):903-908; and Walker S R, et al. (2009) Reciprocal effects of STAT5 and STAT3 in breast cancer. Molecular Cancer Research: MCR 7(6):966-976). Peripheral blood mononuclear cells (PBMCs) were isolated from healthy donors by Ficoll density gradient centrifugation and maintained in RPMI-1640+10% FBS. […]
smiles,measurement,setting,value
"O=C1C(O)=C([C@H]2CC[C@H](c3ccc(Cl)cc3)CC2)C(=O)c2ccccc21 [atovaquone, trans-2-[4-(4-chlorophenyl)cyclohexyl]-3-hydroxy-1,4-naphthalenedione]",viability of HEL cells,HEL cells,killed
same,gp130 mRNA expression,gp130 mRNA,not significantly changed
same,viability of U266 cells,U266 cells,killed
same,S6 phosphorylation in MEFs with knockout of TSC2 or REDD1,mTOR pathway,no effect on S6 phosphorylation
